Measured values reported in Sander's compilation of Henry's law constants (doi:10.1021/je3010535).

Assay: Henry solubility constant Hcp at 298.15 K (mol/(m3 Pa))
Settings: reference: Hiatt (2013)

SMILES | Henry solubility constant Hcp
ClCC(Cl)CCl [1,2,3-trichloropropane] | 0.042
ClCc1ccccc1CCl [α,α-dichloro-o-xylene] | 0.1
[2H]C([2H])=C([2H])Cl [chloroethene-d3] | 0.00038
Cc1cc(Br)cc(Br)c1 [3,5-dibromotoluene] | 0.017
Cc1cc(C)cc(C)c1 [1,3,5-trimethylbenzene] | 0.0023
BrCBr [dibromomethane] | 0.012
CCO[13C](C)=O [ethyl ethanoate-1-13C] | 0.071
Clc1ccc(Cl)cc1 [1,4-dichlorobenzene] | 0.0058
Cc1ccccc1 [methylbenzene] | 0.0021
CC(C)(Cl)Cl [2,2-dichloropropane] | 0.00044
ClC=C(Cl)Cl [trichloroethene] | 0.0012
CC=C(Cl)Cl [1,1-dichloropropene] | 0.00061
C=C(Cl)Cl [1,1-dichloroethene] | 0.00041
ClC(Cl)Br [bromodichloromethane] | 0.0052
Cc1ccc(Cl)cc1 [1-chloro-4-methylbenzene] | 0.0041
ClC(Br)Br [dibromochloromethane] | 0.011
CCc1ccccc1 [ethylbenzene] | 0.002
[2H]C([2H])(Cl)Cl [dichloromethane-d2] | 0.0038
[2H]C([2H])([2H])C1([2H])C([2H])([2H])C([2H])([2H])C([2H])([2H])C([2H])([2H])C1([2H])[2H] [methylcyclohexane-d14] | 0.00031

SMILES | Henry solubility constant Hcp
CC1CCCCC1 [methylcyclohexane] | 0.00032
Cc1ccc(C)c(C)c1 [1,2,4-trimethylbenzene] | 0.0032
ClCC(Cl)Cl [1,1,2-trichloroethane] | 0.014
[2H]c1c([2H])c([2H])c(C([2H])([2H])C([2H])([2H])[2H])c([2H])c1[2H] [ethylbenzene-d10] | 0.002
ClC/C=C/CCl [(E)-1,4-dichloro-2-butene] | 0.035
CI [iodomethane] | 0.0018
[2H]c1c([2H])c([2H])c(C([2H])([2H])[2H])c(C([2H])([2H])[2H])c1[2H] [1,2-dimethylbenzene-d10] | 0.003
C=C(C)C(=O)OC [methyl methacrylate] | 0.043
COC(C)=O [methyl ethanoate] | 0.12
Cc1cccc2ccccc12 [1-methylnaphthalene] | 0.044
CBr [bromomethane] | 0.0013
c1ccc2ccccc2c1 [naphthalene] | 0.033
Fc1cc(F)c(F)c(F)c1F [pentafluorobenzene] | 0.00075
CC(Cl)CCl (stereo not drawn) [1,2-dichloropropane] | 0.0043
Cl/C=C\CCl [cis-1,3-dichloropropene] | 0.0095
CCC(C)c1ccccc1 (stereo not drawn) [(1-methylpropyl)-benzene] | 0.0013
ClCc1ccccc1 [(chloromethyl)-benzene] | 0.02
CC#N [ethanenitrile] | 0.6
CC(=O)CC(C)C [4-methyl-2-pentanone] | 0.1
